Measured values taken from patent US20230233569A1 (Revolution Medicines, Inc., priority 2020, published 2023).

What was measured:
[1] = system: NCI-H358 (K-Ras G12C); assay: CellTiter-Glo cell viability assay, 5-day treatment; format: cell-based; conditions: Homo sapiens, NCI-H358, H358, K-Ras G12C; read-out: Additional H358 Cell Viability assay data (K-Ras G12C, IC50)
Summary of the method: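 Five-day compound treatment of plated cells; luminescent read after ~30 min at RT. Percent-of-DMSO data fit to a four-parameter logistic model.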

[2] = system: K-Ras G12C (NCI-H358 cells); assay: Potency assay: pERK (AlphaLISA SureFire or In-Cell Western); format: cell-based; conditions: Homo sapiens, NCI-H358; H358 KRAS G12C; read-out: pERK EC50
Summary of the method: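 Cellular pERK decrease measured after 4 h compound exposure (37 °C, 5% CO2) of NCI-H358 cells, 10-point 3-fold series from 10 mM DMSO stock, duplicates. Detection either by In-Cell Western (IR-800CW secondary, DRAQ5 stain) or AlphaLISA SureFire Ultra p-ERK1/2; 4-parameter sigmoidal fit gave IC50.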

[3] = target: NRAS G12C (Homo sapiens, UniProt P01111+P62937, G12C); assay: Disruption of BRAF RBD interaction with Ras (FRET / MOA assay, with Cyclophilin A); format: biochemical; conditions: NRAS G12C; read-out: NRAS G12C FRET data IC50
[4] = target: NRAS Q61K (Homo sapiens, UniProt P01111+P62937, Q61K); assay: as above; format: biochemical; conditions: NRAS Q61K; read-out: NRAS Q61K FRET data IC50
Summary of the method: (§1)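 IC50 reflects compound-driven Ras:Cyclophilin A ternary complex displacing BRAF RBD, read as lowered TR-FRET ratio relative to DMSO after Eu anti-His (10 nM) and APC anti-GST (50 nM) detection for 1.5 h. Prior incubation 3 h, 25° C, with 12.5 nM GMPPNP-loaded Ras, 50 nM BRAF RBD, 25 μM Cyclophilin A; top compound 30 μM.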

[5] = target: NRAS Q61R (Homo sapiens, UniProt P01111+P62937, Q61R); assay: as above; format: biochemical; conditions: NRAS Q61R; read-out: NRAS Q61R FRET data IC50
Summary of the method: as §1

NRAS Q61K, sequence (P01111 whole entry Q61K): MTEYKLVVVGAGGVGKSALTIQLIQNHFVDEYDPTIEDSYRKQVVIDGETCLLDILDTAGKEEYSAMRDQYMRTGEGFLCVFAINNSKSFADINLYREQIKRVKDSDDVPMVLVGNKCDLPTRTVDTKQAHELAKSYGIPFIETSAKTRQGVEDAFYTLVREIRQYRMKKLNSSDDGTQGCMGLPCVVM
NRAS Q61K, sequence (P62937 whole entry): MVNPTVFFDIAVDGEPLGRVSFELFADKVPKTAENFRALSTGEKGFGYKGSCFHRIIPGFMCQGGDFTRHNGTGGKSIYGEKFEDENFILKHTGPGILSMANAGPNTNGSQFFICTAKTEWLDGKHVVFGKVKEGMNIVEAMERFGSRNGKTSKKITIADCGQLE
NRAS Q61R, sequence (P01111 whole entry Q61R): as the sequence (P01111 whole entry Q61K) above, with K61R counted along it
NRAS Q61R, sequence (P62937 whole entry): as the sequence (P62937 whole entry) above
NRAS G12C, sequence (P01111 whole entry G12C): as the sequence (P01111 whole entry Q61K) above, with G12C, K61Q counted along it
NRAS G12C, sequence (P62937 whole entry): as the sequence (P62937 whole entry) above

SMILES | IC50 [1] [nM] | EC50 [2] [nM] | IC50 [3] [nM] | IC50 [4] [nM] | IC50 [5] [nM]
CCn1c(-c2cccnc2[C@H](C)OC)c2c3cc(ccc31)-c1cccc(c1)C[C@H](NC(=O)[C@@H](COC1CN(C(=O)C#CC(C)(C)N(C)C(C)C)C1)C(C)C)C(=O)N1CCCC(N1)C(=O)OCC(C)(C)C2 (stereo partly shown) [Example A599] | < 10 | < 5000 | 10 to 100 | > 10000 | > 10000
C=CC(=O)Nc1cnc(OC[C@H](C(=O)N[C@H]2Cc3cccc(c3)-c3ccc4c(c3)c(c(-c3cccnc3[C@H](C)OC)n4CC)CC(C)(C)COC(=O)C3CCCN(N3)C2=O)C(C)C)n1C (stereo partly shown) [Example A600] | < 10 | < 5000 | < 10 | 1000 to 10000 | 1000 to 10000
CO[C@@H](C)c1ncccc1-c1c2c3cc(ccc3n1CC(F)(F)F)-c1csc(n1)C[C@H](NC(=O)[C@H](C(C)C)N(C)C(=O)N1CCC3(CC1)CN(C(=O)/C=C/CF)C3)C(=O)N1CCCC(N1)C(=O)OCC(C)(C)C2 (stereo partly shown) [Example A602] | < 10 | < 5000 | 10 to 100 | 10 to 100 | 10 to 100
CCn1c(-c2cccnc2[C@H](C)OC)c2c3cc(ccc31)N1CCC[C@@H](C[C@H](NC(=O)[C@H](C(C)C)N(C)C(=O)C3CCN(C(=O)C#CC(C)(C)N4CCC4)C3)C(=O)N3CCCC(N3)C(=O)OCC(C)(C)C2)C1 (stereo partly shown) [Example A617] | 10 to 100 | < 5000 | 10 to 100 | > 10000 | > 10000
C=CC(=O)N1CCC[C@H]2CN(C(=O)N(C)[C@H](C(=O)N[C@H]3Cc4nc(cs4)-c4ccc5c(c4)c(c(-c4cccnc4[C@H](C)OC)n5CC)CC(C)(C)COC(=O)C4CCCN(N4)C3=O)C(C)C)C[C@H]21 (stereo partly shown) [Example A618] | 10 to 100 | < 5000 | 100 to 1000 | 100 to 1000 | 100 to 1000
C=CC(=O)N1CCC[C@@H]2CN(C(=O)N(C)[C@H](C(=O)N[C@H]3Cc4nc(cs4)-c4ccc5c(c4)c(c(-c4cccnc4[C@H](C)OC)n5CC)CC(C)(C)COC(=O)C4CCCN(N4)C3=O)C(C)C)C[C@@H]21 (stereo partly shown) [Example A619] | 10 to 100 | < 5000 | 100 to 1000 | 100 to 1000 | 100 to 1000
C=CC(=O)N1CC2(C1)OCCN2C(=O)N(C)[C@H](C(=O)N[C@H]1Cc2nc(cs2)-c2ccc3c(c2)c(c(-c2cccnc2[C@H](C)OC)n3CC)CC(C)(C)COC(=O)C2CCCN(N2)C1=O)C(C)C (stereo partly shown) [Example A620] | < 10 | < 5000 | < 10 | 10 to 100 | 100 to 1000
C=CC(=O)N(C)CCC1CCN(C(=O)N(C)[C@H](C(=O)N[C@H]2Cc3nc(cs3)-c3ccc4c(c3)c(c(-c3cccnc3[C@H](C)OC)n4CC)CC(C)(C)COC(=O)C3CCCN(N3)C2=O)C(C)C)CC1 (stereo partly shown) [Example A621] | < 10 | < 5000 | 10 to 100 | 10 to 100 | 10 to 100
CCn1c(-c2cccnc2[C@H](C)OC)c2c3cc(ccc31)-c1cccc(n1)C[C@H](NC(=O)[C@H](C(C)C)N(C)C(=O)N1CCC13CN(C(=O)C#CC(C)(C)N(C)C)C3)C(=O)N1CCCC(N1)C(=O)OCC(C)(C)C2 (stereo partly shown) [Example A623] | 10 to 100 | < 5000 | 100 to 1000 | 100 to 1000 | 1000 to 10000
CCn1c(-c2cccnc2[C@H](C)OC)c2c3cc(ccc31)-c1csc(n1)C[C@H](NC(=O)[C@H](C(C)C)N(C)C(=O)N1C[C@@H]3CN(C(=O)C#CC(C)(C)N(C)C)CC[C@@H]31)C(=O)N1CCCC(N1)C(=O)OCC(C)(C)C2 (stereo partly shown) [Example A625] | 10 to 100 | < 5000 | 100 to 1000 | 100 to 1000 | 100 to 1000
CCn1c(-c2cccnc2[C@H](C)OC)c2c3cc(ccc31)-c1csc(n1)C[C@H](NC(=O)[C@@H](F)COC1CN(C(=O)C#CC(C)(C)N(C)C)C1)C(=O)N1CCCC(N1)C(=O)OCC(C)(C)C2 (stereo partly shown) [Example A626] | 10 to 100 | < 5000 | < 10 | 1000 to 10000 | 1000 to 10000
CCn1c(-c2cccnc2[C@H](C)OC)c2c3cc(ccc31)-c1csc(n1)C[C@H](NC(=O)[C@H](F)COC1CN(C(=O)C#CC(C)(C)N(C)C)C1)C(=O)N1CCCC(N1)C(=O)OCC(C)(C)C2 (stereo partly shown) [Example A627] | < 10 | < 5000 | < 10 | > 10000 | > 10000
CO[C@@H](C)c1ncccc1-c1c2c3cc(ccc3n1CC(F)(F)F)N1CCO[C@@H](C[C@H](NC(=O)[C@H](C(C)C)N3CC[C@@]4(CCN(C(=O)C#CC(C)(C)N(C)C)C4)C3=O)C(=O)N3CCCC(N3)C(=O)OCC(C)(C)C2)C1 [Example A628] | 10 to 100 | < 5000 | < 10 | > 10000 | > 10000
C=CC(=O)N(C)[C@H]1CN(C(=O)N(C)[C@H](C(=O)N[C@H]2Cc3nc(cs3)-c3ccc4c(c3)c(c(-c3cccnc3[C@H](C)OC)n4CC)CC(C)(C)COC(=O)C3CCCN(N3)C2=O)C(C)C)C[C@H]1F (stereo partly shown) [Example A631] | < 10 | < 5000 | 10 to 100 | 10 to 100 | 100 to 1000
C=CC(=O)N(C)[C@H]1CN(C(=O)N(C)[C@H](C(=O)N[C@H]2Cc3nc(cs3)-c3ccc4c(c3)c(c(-c3cccnc3[C@H](C)OC)n4CC)CC(C)(C)COC(=O)C3CCCN(N3)C2=O)C(C)C)C[C@@H]1F (stereo partly shown) [Example A632] | 100 to 1000 | < 5000 | 10 to 100 | 100 to 1000 | 100 to 1000
C=CC(=O)N1CCCC2(CCN(C(=O)N(C)[C@H](C(=O)N[C@H]3Cc4nc(cs4)-c4ccc5c(c4)c(c(-c4cccnc4[C@H](C)OC)n5CC)CC(C)(C)COC(=O)C4CCCN(N4)C3=O)C(C)C)CC2)C1 (stereo partly shown) [Example A635] | 100 to 1000 | < 5000 | 100 to 1000 | 100 to 1000 | 100 to 1000
C=CC(=O)N1CC2(CCN2C(=O)N(C)[C@H](C(=O)N[C@H]2Cc3cccc(n3)-c3ccc4c(c3)c(c(-c3cccnc3[C@H](C)OC)n4CC)CC(C)(C)COC(=O)C3CCCN(N3)C2=O)C(C)C)C1 (stereo partly shown) [Example A636] | < 10 | < 5000 | 10 to 100 | 100 to 1000 | 100 to 1000
C=CC(=O)N1CC[C@H](C(=O)N(C)[C@@H](CC(F)(F)F)C(=O)N[C@H]2Cc3cccc(c3)-c3ccc4c(c3)c(c(-c3cccnc3[C@H](C)OC)n4CC)CC(C)(C)COC(=O)C3CCCN(N3)C2=O)C1 (stereo partly shown) [Example A639] | 100 to 1000 | < 5000 | 100 to 1000 | 1000 to 10000 | 1000 to 10000
C=CC(=O)N1CC[C@H](C(=O)N(C)[C@H](C(=O)N[C@H]2Cc3cccc(c3)-c3ccc4c(c3)c(c(-c3cccnc3[C@H](C)OC)n4CC)CC(C)(C)COC(=O)C3CCCN(N3)C2=O)[C@@H](C)C(F)(F)F)C1 (stereo partly shown) [Example A640] | 10 to 100 | < 5000 | 100 to 1000 | 1000 to 10000 | 1000 to 10000
C=CC(=O)N1CC[C@H](C(=O)N(C)[C@H](C(=O)N[C@H]2Cc3cccc(c3)-c3ccc4c(c3)c(c(-c3cccnc3[C@H](C)OC)n4CC)CC(C)(C)COC(=O)C3CCCN(N3)C2=O)[C@H](C)C(F)(F)F)C1 (stereo partly shown) [Example A641] | 10 to 100 | < 5000 | 100 to 1000 | 1000 to 10000 | 1000 to 10000
